pIC50: −log10 of the molar value. Read-outs that look alike come from different tables or passages of the source.
How the values were obtained:
Type in all cases: binding
[1] = target: T1, JAK1 (Homo sapiens, UniProt P23458); test: Probe-based (AX9989) kinase profiling in Jurkat lysate: JAK1; details: for inhibition at 0.1 µM: screening concentration 0.1 μM
T1 construct: screened for activity against several kinases in Jurkat cells; endogenous in cells; host or cells: Jurkat cell lysate
Outline: (§1)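 Percent inhibition was derived from reduced LC/MS fragment intensities of probe-labeled peptides relative to compound-free controls. Before labeling with 5 μM AX9989, Mn2+-supplemented (20 mM) Jurkat lysate was exposed to compound for 15 min at room temperature.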

[2] = system: AMPKa1 or AMPKa2; test: Probe-based (AX9989) kinase profiling in Jurkat lysate: AMPKa1 or AMPKa2
Outline: as §1

[3] = system: AurB or AurC; test: Probe-based (AX9989) kinase profiling in Jurkat lysate: AurB or AurC
Outline: as §1

[4] = target: T2, AurA (Homo sapiens, UniProt O14965); test: Probe-based (AX9989) kinase profiling in Jurkat lysate: AurA; details: for inhibition at 0.1 µM: screening concentration 0.1 μM
T2 construct: screened for activity against several kinases in Jurkat cells; endogenous in cells; host or cells: Jurkat cell lysate
T2 sequence (O14965 1-403): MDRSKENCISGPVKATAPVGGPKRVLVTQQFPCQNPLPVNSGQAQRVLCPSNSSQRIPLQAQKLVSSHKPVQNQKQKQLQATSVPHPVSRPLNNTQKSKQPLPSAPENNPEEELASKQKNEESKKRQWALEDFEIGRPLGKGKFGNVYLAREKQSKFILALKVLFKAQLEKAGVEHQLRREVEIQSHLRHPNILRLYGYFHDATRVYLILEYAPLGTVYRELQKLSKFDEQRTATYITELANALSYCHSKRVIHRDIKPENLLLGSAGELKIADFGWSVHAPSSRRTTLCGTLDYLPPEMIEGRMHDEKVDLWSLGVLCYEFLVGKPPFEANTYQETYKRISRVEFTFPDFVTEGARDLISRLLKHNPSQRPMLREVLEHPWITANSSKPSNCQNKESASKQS
Outline: as §1

[5] = target: T3, ACK (Homo sapiens, UniProt Q07912); test: Probe-based (AX9989) kinase profiling in Jurkat lysate: ACK; details: for inhibition at 0.1 µM: screening concentration 0.1 μM
T3 construct: screened for activity against several kinases in Jurkat cells; endogenous in cells; host or cells: Jurkat cell lysate
T3 sequence (Q07912 whole entry): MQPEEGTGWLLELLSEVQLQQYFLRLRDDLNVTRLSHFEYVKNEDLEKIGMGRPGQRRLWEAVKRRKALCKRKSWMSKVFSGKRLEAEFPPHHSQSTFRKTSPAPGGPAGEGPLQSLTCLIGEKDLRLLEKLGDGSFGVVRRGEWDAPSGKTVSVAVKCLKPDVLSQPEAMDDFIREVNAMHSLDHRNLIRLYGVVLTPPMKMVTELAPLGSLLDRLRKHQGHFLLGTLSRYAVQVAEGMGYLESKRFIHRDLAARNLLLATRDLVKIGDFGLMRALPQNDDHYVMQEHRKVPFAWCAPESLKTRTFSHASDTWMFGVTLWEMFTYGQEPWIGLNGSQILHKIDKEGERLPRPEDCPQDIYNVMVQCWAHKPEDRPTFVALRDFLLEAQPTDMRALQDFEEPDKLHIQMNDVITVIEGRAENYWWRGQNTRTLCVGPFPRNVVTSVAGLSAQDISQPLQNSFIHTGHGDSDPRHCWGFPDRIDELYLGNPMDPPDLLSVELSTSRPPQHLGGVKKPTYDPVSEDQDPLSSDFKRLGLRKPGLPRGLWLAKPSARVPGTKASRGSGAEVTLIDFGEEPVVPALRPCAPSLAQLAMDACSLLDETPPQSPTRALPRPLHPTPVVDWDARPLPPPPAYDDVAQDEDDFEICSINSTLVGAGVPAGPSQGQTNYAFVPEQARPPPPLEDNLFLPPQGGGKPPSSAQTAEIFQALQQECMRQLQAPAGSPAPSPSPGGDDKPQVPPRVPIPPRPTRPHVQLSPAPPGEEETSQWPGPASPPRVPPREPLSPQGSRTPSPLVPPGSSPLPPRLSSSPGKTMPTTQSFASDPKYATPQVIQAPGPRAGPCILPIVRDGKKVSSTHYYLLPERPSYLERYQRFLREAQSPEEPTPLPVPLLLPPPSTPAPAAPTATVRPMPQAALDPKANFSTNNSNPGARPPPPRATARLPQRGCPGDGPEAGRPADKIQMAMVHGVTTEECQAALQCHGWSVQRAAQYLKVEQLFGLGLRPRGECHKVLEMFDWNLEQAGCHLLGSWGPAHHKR
Outline: as §1

[6] = target: T4, TAO2 (Homo sapiens, UniProt Q9UL54); test: Probe-based (AX9989) kinase profiling in Jurkat lysate: TAO2; details: for inhibition at 0.1 µM: screening concentration 0.1 μM
T4 construct: screened for activity against several kinases in Jurkat cells; endogenous in cells; host or cells: Jurkat cell lysate
T4 sequence (Q9UL54 1-1235): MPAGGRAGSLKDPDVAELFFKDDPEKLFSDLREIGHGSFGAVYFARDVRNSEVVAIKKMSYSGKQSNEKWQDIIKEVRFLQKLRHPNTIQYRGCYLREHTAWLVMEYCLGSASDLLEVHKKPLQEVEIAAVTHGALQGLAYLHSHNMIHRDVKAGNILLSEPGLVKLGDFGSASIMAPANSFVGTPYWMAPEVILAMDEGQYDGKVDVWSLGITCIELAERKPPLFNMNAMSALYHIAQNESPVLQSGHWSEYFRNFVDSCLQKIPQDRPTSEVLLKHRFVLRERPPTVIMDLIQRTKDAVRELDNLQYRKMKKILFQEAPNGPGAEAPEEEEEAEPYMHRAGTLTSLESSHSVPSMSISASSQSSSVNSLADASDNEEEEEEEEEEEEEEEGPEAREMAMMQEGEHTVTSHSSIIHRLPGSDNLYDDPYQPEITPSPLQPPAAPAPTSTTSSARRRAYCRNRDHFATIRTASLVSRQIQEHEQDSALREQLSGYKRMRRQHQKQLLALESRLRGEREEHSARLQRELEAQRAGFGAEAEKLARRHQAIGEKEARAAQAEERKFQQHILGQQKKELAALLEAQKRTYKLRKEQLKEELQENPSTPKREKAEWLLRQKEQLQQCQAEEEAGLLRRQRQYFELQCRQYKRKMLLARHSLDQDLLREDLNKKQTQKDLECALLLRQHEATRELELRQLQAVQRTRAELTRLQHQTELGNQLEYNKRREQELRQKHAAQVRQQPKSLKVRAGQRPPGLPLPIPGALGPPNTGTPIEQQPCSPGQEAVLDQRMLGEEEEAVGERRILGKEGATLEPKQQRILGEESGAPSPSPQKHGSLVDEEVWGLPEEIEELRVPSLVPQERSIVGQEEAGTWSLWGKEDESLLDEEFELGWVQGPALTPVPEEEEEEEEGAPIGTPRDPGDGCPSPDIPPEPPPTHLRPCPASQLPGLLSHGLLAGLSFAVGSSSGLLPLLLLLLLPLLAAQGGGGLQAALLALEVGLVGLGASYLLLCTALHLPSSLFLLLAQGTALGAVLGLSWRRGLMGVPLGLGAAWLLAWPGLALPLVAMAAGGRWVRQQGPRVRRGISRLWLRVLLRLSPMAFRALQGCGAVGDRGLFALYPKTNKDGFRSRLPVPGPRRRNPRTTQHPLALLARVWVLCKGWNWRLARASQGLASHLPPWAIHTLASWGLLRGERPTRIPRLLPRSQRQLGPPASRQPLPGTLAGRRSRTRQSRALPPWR
Outline: as §1

[7] = target: T5, ERK5 (Homo sapiens, UniProt Q13164); test: Probe-based (AX9989 acyl phosphate ATP probe) kinase profiling in Jurkat lysate: ERK5; details: for pIC50: Jurkat lysate; for inhibition at 0.1 µM: screening concentration 0.1 μM
T5 construct: screened for activity against several kinases in Jurkat cells; endogenous in cells; host or cells: Jurkat cell lysate
T5 sequence (Q13164 whole entry): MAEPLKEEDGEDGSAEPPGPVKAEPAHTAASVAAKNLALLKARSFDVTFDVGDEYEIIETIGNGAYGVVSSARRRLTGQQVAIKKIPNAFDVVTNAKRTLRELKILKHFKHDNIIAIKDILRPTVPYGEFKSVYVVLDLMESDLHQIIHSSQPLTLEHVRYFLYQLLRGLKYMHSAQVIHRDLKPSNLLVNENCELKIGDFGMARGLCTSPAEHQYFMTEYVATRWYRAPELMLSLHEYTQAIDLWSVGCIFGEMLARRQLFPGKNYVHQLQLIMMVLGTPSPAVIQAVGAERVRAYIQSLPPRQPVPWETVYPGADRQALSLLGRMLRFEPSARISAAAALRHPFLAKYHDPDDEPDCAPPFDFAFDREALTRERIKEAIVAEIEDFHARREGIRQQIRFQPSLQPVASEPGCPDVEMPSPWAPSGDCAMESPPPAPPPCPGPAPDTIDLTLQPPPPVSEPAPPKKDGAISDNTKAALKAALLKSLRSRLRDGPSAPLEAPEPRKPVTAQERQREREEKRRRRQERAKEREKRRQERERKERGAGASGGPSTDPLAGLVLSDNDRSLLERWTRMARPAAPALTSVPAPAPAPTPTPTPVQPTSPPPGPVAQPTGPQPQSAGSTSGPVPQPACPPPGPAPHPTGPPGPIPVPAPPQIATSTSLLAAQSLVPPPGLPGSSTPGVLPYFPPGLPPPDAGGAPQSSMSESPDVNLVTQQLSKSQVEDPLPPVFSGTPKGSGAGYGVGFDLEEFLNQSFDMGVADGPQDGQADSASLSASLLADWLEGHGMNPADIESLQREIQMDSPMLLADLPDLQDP
Outline: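 ERK5 IC50 values came from percent inhibition at the screening concentration, measured as loss of LC/MS signal of probe-labelled active-site peptides. Compound was added for 15 min at room temperature to Jurkat lysate (5 mg/ml, 20 mM MnCl2) before labelling with AX9989 ATP acyl phosphate probe at 5 μM.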

[8] = system: ABL or ARG; test: Probe-based (AX9989) kinase profiling in Jurkat lysate: ABL or ARG
Outline: as §1

[9] = target: T6, BRD4 bromodomain domain I [BRD4(1)] (Homo sapiens, UniProt O60885); test: BRD4 bromodomain domain 1 inhibition assay (TR-FRET); details: screening concentration 10 μM
T6 construct: BRD4 bromodomain domain I [BRD4(1)]; purchased Cayman Chemicals
Method: The inhibitory activity of test compounds on the bromodomain, BRD4 bromodomain domain I [BRD4(1)], were determined via TR-FRET after a slight modification of the manufacturer's protocol (Cayman Chemicals, Ann Arbor, Mich.). Briefly, compounds were diluted to a 20× ([…]) concentration in DMSO. 100 nL of 20× compounds were then dry stamped into triplicate wells of black, low volume 384 well plates (Aurora Biotechnologies, Carlsbad, Calif.) using the Mosquito liquid handler (TPP Labtech, Melbourn, UK). 20× compounds were then diluted to a 4× (40 μM) concentration in Assay Buffer to result in 2% DMSO content. […] JQ1 at 10 μM or 0.5% DMSO final concentrations were used as the positive and negative controls, respectively, to set the assay window. The fluorescence was read in a time-resolved format on the Biotec Synergy 2 plate reader by exciting the signal at 340 nm and reading emissions at 620 and 670, using a 100 μs delay and 200 μs read window. […] Briefly, TR-FRET ratio values were normalized to the average TR-FRET ratio value given by 10 μM JQ1. […]

[10] = screening concentration 1.0 μM, read-out: Kinase inhibition % at indicated screening concentration: JAK1
[11] = screening concentration 1.0 μM, read-out: Kinase inhibition % at indicated screening concentration: AurA
[12] = screening concentration 1.0 μM, read-out: Kinase inhibition % at indicated screening concentration: ACK
[13] = screening concentration 1.0 μM, read-out: Kinase inhibition % at indicated screening concentration: TAO2
[14] = calculated from percent inhibition of AX9989 labeling and the screening concentration
[15] = screening concentration 1.0 μM, read-out: Kinase inhibition % at indicated screening concentration: ERK5
[16] = read-out: Kinase inhibition % at indicated screening concentration: JAK1
[17] = read-out: Kinase inhibition % at indicated screening concentration: AurA
[18] = read-out: Kinase inhibition % at indicated screening concentration: ACK
[19] = read-out: Kinase inhibition % at indicated screening concentration: TAO2
[20] = read-out: Kinase inhibition % at indicated screening concentration: ERK5

T1 sequence (P23458 whole entry): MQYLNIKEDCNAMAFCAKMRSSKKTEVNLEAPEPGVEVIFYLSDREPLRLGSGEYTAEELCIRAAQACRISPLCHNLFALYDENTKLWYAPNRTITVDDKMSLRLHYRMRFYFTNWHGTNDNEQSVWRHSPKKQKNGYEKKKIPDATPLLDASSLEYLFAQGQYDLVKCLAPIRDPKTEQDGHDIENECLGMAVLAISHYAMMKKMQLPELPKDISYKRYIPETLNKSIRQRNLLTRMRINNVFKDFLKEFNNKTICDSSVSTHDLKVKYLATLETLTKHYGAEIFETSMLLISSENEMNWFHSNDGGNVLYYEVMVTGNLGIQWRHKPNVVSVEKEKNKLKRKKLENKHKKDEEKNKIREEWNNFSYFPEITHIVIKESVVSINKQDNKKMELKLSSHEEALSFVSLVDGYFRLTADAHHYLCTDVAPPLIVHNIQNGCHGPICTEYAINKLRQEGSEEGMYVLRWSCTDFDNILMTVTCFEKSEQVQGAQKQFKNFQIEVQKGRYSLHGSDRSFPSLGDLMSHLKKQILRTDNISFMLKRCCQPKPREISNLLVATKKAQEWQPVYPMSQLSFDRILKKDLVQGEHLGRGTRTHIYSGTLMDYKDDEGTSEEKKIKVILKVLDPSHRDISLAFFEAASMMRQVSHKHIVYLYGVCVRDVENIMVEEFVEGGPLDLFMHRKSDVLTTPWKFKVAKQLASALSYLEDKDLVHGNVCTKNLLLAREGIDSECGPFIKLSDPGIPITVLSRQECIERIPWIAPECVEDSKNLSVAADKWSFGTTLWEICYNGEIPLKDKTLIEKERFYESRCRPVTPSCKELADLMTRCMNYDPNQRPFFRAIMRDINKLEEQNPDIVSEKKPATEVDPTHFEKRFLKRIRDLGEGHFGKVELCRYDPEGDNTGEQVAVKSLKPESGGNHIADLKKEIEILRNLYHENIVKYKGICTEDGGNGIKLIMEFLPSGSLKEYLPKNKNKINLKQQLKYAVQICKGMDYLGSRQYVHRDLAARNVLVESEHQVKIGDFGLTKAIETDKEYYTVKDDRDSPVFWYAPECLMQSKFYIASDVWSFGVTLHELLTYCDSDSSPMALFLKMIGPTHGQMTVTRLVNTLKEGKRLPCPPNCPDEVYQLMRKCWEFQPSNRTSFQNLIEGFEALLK

SMILES | inhibition at 10 µM [9] [%] | inhibition at 1 µM [1, 10] [%] | Kinase inhibition % at indicated screening concentration: AMPKa1 or AMPKa2 ([2]; screening concentration 1.0 μM) | Kinase inhibition % at indicated screening concentration: AurB or AurC ([3]; screening concentration 1.0 μM) | inhibition at 1 µM [4, 11] [%] | inhibition at 1 µM [5, 12] [%] | inhibition at 1 µM [6, 13] [%] | pIC50 [7, 14] | inhibition at 1 µM [7, 15] [%] | Kinase inhibition % at indicated screening concentration: ABL or ARG ([8]; screening concentration 1.0 μM) | inhibition at 0.1 µM [1, 16] [%] | Kinase inhibition % at indicated screening concentration: AMPKa1 or AMPKa2 ([2]; screening concentration 0.1 μM) | Kinase inhibition % at indicated screening concentration: AurB or AurC ([3]; screening concentration 0.1 μM) | inhibition at 0.1 µM [4, 17] [%] | inhibition at 0.1 µM [5, 18] [%] | inhibition at 0.1 µM [6, 19] [%] | inhibition at 0.1 µM [7, 20] [%] | Kinase inhibition % at indicated screening concentration: ABL or ARG ([8]; screening concentration 0.1 μM) | other results
CCOc1cc(C(=O)N2CCOCC2)ccc1Nc1cc2c(cn1)N(C)C(=O)c1ccccc1O2 [Compound T81, 3-((2-ethoxy-4-(morpholine-4-carbonyl)phenyl)amino)-11-methylbenzo[f]pyrido[4,3-b][1,4]oxazepin-10(11H)-one] | < 70 | – | – | – | – | – | – | – | – | – | – | – | – | – | – | – | – | – | inhibition at 1 µM ([1]; screening concentration 1 μM, read-out: JAK1 Inhibition % at indicated screening concentration): ≤ 35%; AMPKa1 or AMPKa2 Inhibition % at indicated screening concentration ([2]; screening concentration 1 μM): E (E is ≦35%); AurB or AurC Inhibition % at indicated screening concentration ([3]; screening concentration 1 μM): E (E is ≦35%); inhibition at 1 µM ([4]; screening concentration 1 μM, read-out: AurA Inhibition % at indicated screening concentration): ≤ 35%; inhibition at 1 µM ([5]; screening concentration 1 μM, read-out: ACK Inhibition % at indicated screening concentration): ≤ 35%; inhibition at 1 µM ([6]; screening concentration 1 μM, read-out: TAO2 Inhibition % at indicated screening concentration): ≤ 35%; pIC50 ([7]; calculated from percent inhibition and screening concentration, AX9989 probe): 6.30 to 7.00; inhibition at 1 µM ([7]; screening concentration 1 μM, read-out: ERK5 Inhibition % at indicated screening concentration): 75 to 90%; ABL or ARG Inhibition % at indicated screening concentration ([8]; screening concentration 1 μM): E (E is ≦35%)
COc1c(Nc2cc3c(cn2)N(C)C(=O)c2ccccc2N3C)cccc1C(=O)O [Compound 9] | < 70 | ≤ 35 | E (E is ≦35%) | E (E is ≦35%) | ≤ 35 | ≤ 35 | ≤ 35 | < 6.30 | ≤ 35 | E (E is ≦35%) | – | – | – | – | – | – | – | – | –
CCOc1cc(C(=O)N2CCCC(N)C2)ccc1Nc1cc2c(cn1)N(C)C(=O)c1occc1N2C (centres unmarked) [Compound 113] | > 85 | – | – | – | – | – | – | ≥ 7.30 | – | – | ≤ 35 | E (E is ≦35%) | E (E is ≦35%) | ≤ 35 | ≤ 35 | ≤ 35 | > 90 | E (E is ≦35%) | –
CCOc1cc(C(=O)N2CC[C@@H](NC)C2)ccc1Nc1cc2c(cn1)N(C)C(=O)c1ccccc1N2C [Compound 26] | > 85 | – | – | – | – | – | – | ≥ 7.30 | – | – | ≤ 35 | E (E is ≦35%) | E (E is ≦35%) | ≤ 35 | ≤ 35 | ≤ 35 | 75 to 90 | E (E is ≦35%) | –
CCN(CC)CCNC(=O)c1cccc(Nc2cc3c(cn2)N(C)C(=O)c2ccccc2N3C)c1OC [Compound 29] | < 70 | ≤ 35 | E (E is ≦35%) | E (E is ≦35%) | ≤ 35 | ≤ 35 | ≤ 35 | 6.30 to 7.00 | 50 to 75 | E (E is ≦35%) | – | – | – | – | – | – | – | – | –
